Experimental data taken from patent publication US8772498B2, “Alkylamine-substituted dicyanopyridine and amino acid ester prodrugs thereof” (Bayer Intellectual Property GmbH, priority 2009, dated 2014).
Where a name gives a salt, the structure may show the parent alone.

Experiments:
[1] = Stability in suspension (isopropanol, 7 days); assay type: physicochemical; conditions: room temperature, LC/MS
Description: c) Stability in Suspension and as Solid:
4.7-4.8 g of the test substance are suspended in 200 ml of isopropanol and stirred at room temperature for 7 days. The solid is filtered off and air-dried at room temperature for 3 days. LC/MS (Method 2) is then used to measure whether there has been a degradation of the test substance.

[2] = i.v. pharmacokinetics in Wistar rats; assay type: in vivo; conditions: after i.v. administration
Description: e) i.v. Pharmacokinetics in Wistar Rats:
(§1) On the day before administration of the substance, a catheter for obtaining blood is implanted in the jugular vein of the experimental animals (male Wistar rats, body weight 200-250 g) under Isofluran® anesthesia.
(§2) On the day of the experiment, a defined dose of the test substance is administered as solution into the tail vein using a Hamilton® glass syringe (bolus administration, duration of administration<10 s). Blood samples (8-12 time points) are taken through the catheter sequentially over the course of 24 h after administration of the substance. Plasma is obtained by centrifuging the samples in heparinized tubes. Acetonitrile is added to a defined plasma volume per time point to precipitate proteins. After centrifugation, test substance and, where appropriate, known cleavage products of the test substance in the supernatant are determined quantitatively using a suitable LC/MS-MS method.
The measured plasma concentrations are used to calculate pharmacokinetic parameters of the test substance and of the active ingredient compound (A) liberated therefrom, such as AUC, Cmax, T1/2 (half-life) and CL (clearance).

[3] = Stability as solid (90° C., 7 days); assay type: physicochemical; conditions: sealed vial, HPLC
Description: To assess the stability of the solids, 20 mg of the solids obtained in this manner are stored in a sealed Head-Space vial at 90° C. in a drying cabinet without vacuum for 7 days. HPLC is then used to measure whether there has been a degradation of the test substance.
HPLC Method for Measuring the Stability of the Solid of Example 63:
HPLC Method for Measuring the Stability of the Solid of Example 44: […]

[4] = Oral pharmacokinetics in Wistar rats; assay type: in vivo; conditions: after oral administration
Description: f) Oral Pharmacokinetics in Wistar Rats:
as §1
as §2, with “stomach by gavage.” for “tail vein using a Hamilton® glass syringe (bolus administration, duration of administration<10 s).”
The measured plasma concentrations are used to calculate pharmacokinetic parameters of the test substance and of the active ingredient compound (A) liberated therefrom, such as AUC, Cmax and T1/2 (half-life).

[5] = Stability in buffer at various pH values; assay type: physicochemical
Description: b) Stability in Buffer at Various pH Values:
0.3 mg of the test substance is weighed into a 2 ml HPLC vial and 0.5 ml of acetonitrile or acetonitrile/DMSO (9:1) is added. The substance is dissolved by putting the sample vessel in an ultrasonic bath for about 10 seconds. Then 0.5 ml of the respective (buffer) solution is added, and the sample is again treated in the ultrasonic bath.
(Buffer) solutions employed:
pH 4: 1 liter of Millipore water is adjusted to pH 4.0 with 1 N hydrochloric acid;
pH 7.4: 90.0 g of sodium chloride, 13.61 g of potassium dihydrogen phosphate and 83.35 g of 1 N sodium hydroxide solution are made up to 1 liter with water; this solution is then further diluted 1:10 with Millipore water.
5 μl portions of the test solution are analyzed by HPLC for their content of unchanged test substance, and of active substance (A) produced, every hour over a period of 24 hours at 37° C. The percentage areas of the appropriate peaks are used for quantification.
HPLC method for Examples 41 and 44:
(§3) Agilent 1100 with DAD (G1315B), binary pump (G1312A), autosampler (G1329A), column oven (G1316A), thermostat (G1330B); column: Kromasil 100 C18, 250 mm×4 mm, 5 μm; column temperature: 30° C.; mobile phase A: water+5 ml of perchloric acid/liter, eluent B: acetonitrile; gradient: 0 min 90% A→5.0 min 40% A→18.0 min 10% A→19.0 min 10% A→21.0 min 90% A→23.0 min 90% A; flow rate: 2.0 ml/min; UV detection: 288 nm.
HPLC Method for Examples 50 and 59:
as §3, with “125” for “250”, “60% A→7.0 min 60% A→10.0” for “40% A→18.0”, “A→12.0” for “A→19.0”, “A→14.0” for “A→21.0”, “A→16.0” for “A→23.0”, “294” for “288”
HPLC Method for Example 54:
as §3, with “(G1314A),” for “(G1315B),”, “(G1330A);” for “(G1330B);”
The ratios of the peak areas (F) at the respective time points in relation to the peak areas at the starting time are shown in Table 2 for representative exemplary embodiments: […]

[6] = tested on: spontaneously hypertensive rats; test: Measurement of blood pressure and heart rate on awake rats (telemetry); assay type: in vivo; conditions: maximum reduction in heart rate, oral administration of 3 mg/kg, awake SH rats
Description: B-5. Measurement of Blood Pressure and Heart Rate
Awake spontaneously hypertensive rats (SH-Ratten) carrying an internal transmitter capable of measuring permanently both blood pressure and heart rate (telemetric monitoring of hemodynamic parameters) and sitting in a cage fitted with motion sensors are orally administered test substances in various dosages. Blood pressure and heart rate and changes thereof, and also the movements and the activity of the animals are then recorded and evaluated for 24 hours.

[7] = Determination of the solubility in 5% strength aqueous dextrose solution; assay type: physicochemical; conditions: saline or isotonic, thermodynamic from solid, room temperature, 24 h
Description: B-8. Determination of Solubility, Stability and Liberation Behavior a) Determination of the Solubility:
The test substance is suspended in 5% strength aqueous dextrose solution. This suspension is shaken at room temperature for 24 h. After ultracentrifugation at 224 000 g for 30 min, the supernatant is diluted with DMSO and analyzed by HPLC. A two-point calibration plot of the test compound in DMSO is used for quantification.
Agilent 1100 with DAD (G1315A), quat. pump (G1311A), autosampler CTC HTS PAL, degasser (G1322A) and column thermostat (G1316A); column: Phenomenex Gemini C18, 5 μm, 50 mm×2 mm; temperature: 40° C.; eluent A: water/phosphoric acid pH 2; eluent B: acetonitrile; flow rate: 0.7 ml/min; gradient: 0-0.5 min 85% A, 15% B; ramp: 0.5-3 min 10% A, 90% B; 3-3.5 min 10% A, 90% B; ramp: 3.5-4 min 85% A, 15% B; 4-5 min 85% A, 15% B.
Agilent 1100 with DAD (G1315A), quat. pump (G1311A), autosampler CTC HTS PAL, degasser (G1322A) and column thermostat (G1316A); column: VDSoptilab Kromasil 100 C18, 3.5 μm, 60 mm×2.1 mm; temperature: 30° C.; eluent A: water+5 ml perchloric acid/I; eluent B: acetonitrile; flow rate: 0.75 ml/min; gradient: 0-0.5 min 98% A, 2% B; ramp: 0.5-4.5 min 10% A, 90% B; 4.5-6 min 10% A, 90% B; ramp: 6.5-6.7 min 98% A, 2% B; 6.7-7.5 min 98% A, 2% B.

Row | SMILES | Degradation of the test substance in suspension [1] | Detectability of the administered substance in plasma [2] | Degradation of the solid [3] | Detectability of the administered substance in plasma [4] | % test substance after 4 h (F(t = 4 h) × 100/F(t = 0 h)) ([5]; pH 4, 37° C.) | % test substance after 24 h (F(t = 24 h) × 100/F(t = 0 h)) ([5]; pH 4, 37° C.) | % test substance after 4 h (F(t = 4 h) × 100/F(t = 0 h)) ([5]; pH 7.4, 37° C.) | % test substance after 24 h (F(t = 24 h) × 100/F(t = 0 h)) ([5]; pH 7.4, 37° C.) | Heart rate reduction [6] | solubility at 24 h [7]
1 | CC[C@H](C)[C@H](N)C(=O)N[C@@H](C)C(=O)OCCOc1ccc(-c2c(C#N)c(SCc3csc(-c4ccc(Cl)cc4)n3)nc(N3CCCC3)c2C#N)cc1 [Example 63, 2-{4-(2-({(2-(4-Chlorophenyl)-1,3-thiazol-4-yl)methyl}sulfanyl)-3,5-dicyano-6-(pyrrolidin-1-yl)pyridin-4-yl)phenoxy}ethyl L-isoleucyl-L-alaninate hydrochloride] | no degradation | no longer detectable in plasma even at the first measurement point | no degradation | no longer detectable in plasma even at the first measurement point | 98% | 98% | 93% | 67% | −20% | –
2 | C[C@H](NC(=O)[C@@H](N)CCCCN)C(=O)OCCOc1ccc(-c2c(C#N)c(SCc3csc(-c4ccc(Cl)cc4)n3)nc(N3CCCC3)c2C#N)cc1 [Example 41, 2-{4-(2-({(2-(4-Chlorophenyl)-1,3-thiazol-4-ylmethyl}sulfanyl)-3,5-dicyano-6-(pyrrolidin-1-yl)pyridin-4-yl)phenoxy}ethyl L-lysyl-L-alaninatedihydrochloride] | – | no longer detectable in plasma even at the first measurement point | – | no longer detectable in plasma even at the first measurement point | 97% | 99% | 37% | 0% | −5% | 650 µg/mL
3 | C[C@H](N)C(=O)N[C@@H](C)C(=O)OCCOc1ccc(-c2c(C#N)c(SCc3csc(-c4ccc(Cl)cc4)n3)nc(N3CCCC3)c2C#N)cc1 [Example 44, 2-{4-(2-({(2-(4-Chlorophenyl)-1,3-thiazol-4-yl)methyl}sulfanyl)-3,5-dicyano-6-(pyrrolidin-1-yl)pyridin-4-yl)phenoxy}ethyl L-alanyl-L-alaninate hydrochloride] | no degradation | no longer detectable in plasma even at the first measurement point | no degradation | no longer detectable in plasma even at the first measurement point | 99% | 99% | 78% | 26% | −20% | 410 µg/mL
